Measured values reported in patent US7220750B2, “Bicyclic heterocycles, pharmaceutical compositions containing these compounds, their use and processes for preparing them” (Boehringer Ingelheim Pharma GmbH & Co. KG, priority 1999, dated 2007).

tested on: not given; assay: not given; settings: not given

SMILES | melting point
CCN(CC)CC=CC(=O)Nc1cc2c(Nc3ccc(F)c(Cl)c3)ncnc2cc1OCC1CC1 [Example 3, 4-[(3-Chloro-4-fluorophenyl)amino]-6-{[4-(N,N-diethylamino)-1-oxo-2-buten-1-yl]amino}-7-cyclopropylmethoxyquinazoline] | ~ 145 °C (dec.)

target: T1, human EGF-R (Homo sapiens, UniProt P00533); assay: Inhibition of EGF-dependent proliferation of F/L-HERc cells (Cell Titer 96 assay); type: cell-based; settings: F/L-HERc cells (murine IL-3-dependent line expressing human EGF-R), stimulated with EGF 20 ng/ml, 48 hours
T1 construct: expressed in transfected cells; host or cells: F/L-HERc cells (murine IL-3-dependent FDC-P1 line transduced with LXSN retroviral vector carrying human EGF-R cDNA; packaging line GP+E86)
From the text: A cell line of murine origin dependent on interleukin-3-(IL-3) which was genetically modified to express functional human EGF-R was used here. The proliferation of these cells known as F/L-HERc can therefore be stimulated either by murine IL-3 or by EGF (cf. T. von Rüden et al., EMBO J. 7, 2749–2756 (1988) and J. H Pierce et al., Science 239, 628–631 (1988)).
The starting material used for the F/L-HERc cells was the cell line FDC-P1, the production of which has been described by T. M. Dexter et al., J. Exp. Med. 152, 1036–1047 (1980). Alternatively, however, other growth-factor-dependent cells may also be used (cf., for example, J. H. Pierce et al., Science 239, 628–631 (1988); H. Shibuya et al., Cell 70, 57–67 (1992); and W. S. Alexander et al., EMBO J. 10, 3683–3691 (1991)). For expressing the human EGF-R cDNA (cf. Ullrich, A. et al. in Nature 309, 418–425 (1984)) recombinant retroviruses were used as described by T. von Rüden et al., EMBO J. 7, 2749–2756 (1988), except that the retroviral vector LXSN (cf. A. D. Miller et al., BioTechniques 7, 980–990 (1989)) was used for the expression of the EGF-R cDNA and the line GP+E86 (cf. D. Markowitz et al., J. Virol. 62, 1120–1124 (1988)) was used as the packaging cell.
F/L-HERc cells were cultivated in RPMI/1640 medium (BioWhittaker), supplemented with 10% fetal calf serum (FCS, Boehringer Mannheim), 2 mM glutamine (BioWhittaker), standard antibiotics and 20 ng/ml of human EGF (Promega), at 37° C. and 5% CO2. In order to investigate the inhibitory activity of the compounds according to the invention, 1.5×10^4 cells per well were cultivated in triplicate in 96-well dishes in the above medium (200 μl), the cell proliferation being stimulated with either EGF (20 ng/ml) or murine IL-3. The IL-3 used was obtained from culture supernatants of the cell line X63/0 mIL-3 (cf. H. Karasuyama et al., Eur. J. Immunol. 18, 97–104 (1988)). The compounds according to the invention were dissolved in 100% dimethylsulfoxide (DMSO) and added to the cultures in various dilutions, the maximum DMSO concentration being 1%. The cultures were incubated for 48 hours at 37° C.
In order to determine the inhibitory activity of the compounds according to the invention the relative cell number was measured in O.D. units using the Cell Titer 96™ Aqueous Non-Radioactive Cell Proliferation Assay (Promega). The relative cell number was calculated as a percentage of the control (F/LHERc cells without inhibitor) and the concentration of active substance which inhibits the proliferation of the cells by 50% (IC50) was derived therefrom.

T1 sequence (P00533 25-1210): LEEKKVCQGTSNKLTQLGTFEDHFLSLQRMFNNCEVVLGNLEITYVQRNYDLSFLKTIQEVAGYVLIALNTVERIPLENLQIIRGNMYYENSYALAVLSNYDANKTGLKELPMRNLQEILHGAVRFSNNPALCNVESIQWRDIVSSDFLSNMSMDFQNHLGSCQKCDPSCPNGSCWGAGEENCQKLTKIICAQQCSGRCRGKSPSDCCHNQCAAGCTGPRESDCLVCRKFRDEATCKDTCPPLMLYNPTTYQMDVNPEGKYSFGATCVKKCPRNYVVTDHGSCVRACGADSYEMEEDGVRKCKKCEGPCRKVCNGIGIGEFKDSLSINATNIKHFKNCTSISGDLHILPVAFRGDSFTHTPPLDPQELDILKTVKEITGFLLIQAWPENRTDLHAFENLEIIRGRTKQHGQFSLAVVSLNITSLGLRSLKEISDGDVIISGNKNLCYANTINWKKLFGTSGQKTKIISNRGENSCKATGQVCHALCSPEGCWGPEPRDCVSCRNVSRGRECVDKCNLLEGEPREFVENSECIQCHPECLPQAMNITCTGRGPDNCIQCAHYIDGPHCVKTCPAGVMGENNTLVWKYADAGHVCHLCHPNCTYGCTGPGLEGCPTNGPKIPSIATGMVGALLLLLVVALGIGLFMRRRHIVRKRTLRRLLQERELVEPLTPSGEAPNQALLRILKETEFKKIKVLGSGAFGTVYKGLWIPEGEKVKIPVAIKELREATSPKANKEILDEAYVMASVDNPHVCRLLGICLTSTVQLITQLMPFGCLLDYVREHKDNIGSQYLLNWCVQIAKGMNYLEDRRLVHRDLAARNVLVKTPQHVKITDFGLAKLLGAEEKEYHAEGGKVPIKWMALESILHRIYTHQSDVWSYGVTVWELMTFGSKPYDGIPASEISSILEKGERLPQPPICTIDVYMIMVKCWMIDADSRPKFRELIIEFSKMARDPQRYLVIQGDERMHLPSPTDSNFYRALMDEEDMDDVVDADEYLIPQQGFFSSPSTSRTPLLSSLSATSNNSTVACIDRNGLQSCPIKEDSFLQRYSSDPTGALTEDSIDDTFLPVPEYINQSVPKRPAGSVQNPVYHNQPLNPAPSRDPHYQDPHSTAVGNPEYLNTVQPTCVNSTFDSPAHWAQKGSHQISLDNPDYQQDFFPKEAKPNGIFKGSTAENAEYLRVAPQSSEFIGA

SMILES | IC50 [nM]
C=CC(=O)Nc1cc2c(Nc3ccc(F)c(Cl)c3)ncnc2cc1OCCCC1CCN(C)CC1 [1(7), 4-[(3-Chloro-4-fluorophenyl)amino]-7-[3-(1-methylpiperidin-4-yl)propyloxy]-6-[(vinylcarbonyl)amino]quinazoline] | < 0.5
CC#CC(=O)Nc1cc2c(Nc3cccc(Br)c3)ncnc2cc1OCCCC1CCN(C)CC1 [2(3), 4-[(3-Bromophenyl)amino]-7-[3-(1-methylpiperidin-4-yl)propyloxy]-6-[(1-oxo-2-butyn-1-yl)amino]quinazoline] | 0.35
O=C(C=CCN1CCOCC1)Nc1cc2c(Nc3ccc(F)c(Cl)c3)ncnc2cc1OCC1CC1 [3(1), 4-[(3-Chloro-4-fluorophenyl)amino]-6-{[4-(morpholin-4-yl)-1-oxo-2-buten-1-yl]amino}-7-cyclopropylmethoxyquinazoline] | 0.2
C=CC(=O)Nc1cc2c(Nc3cccc(Br)c3)ncnc2cc1OCCCC1CCN(C)CC1 [Example 1, 4-[(3-Bromophenyl)amino]-7-[3-(1-methylpiperidin-4-yl)propyloxy]-6-[(vinylcarbonyl)amino]quinazoline] | < 0.35
CCN(CC)CC=CC(=O)Nc1cc2c(Nc3ccc(F)c(Cl)c3)ncnc2cc1OCC1CC1 [Example 3, 4-[(3-Chloro-4-fluorophenyl)amino]-6-{[4-(N,N-diethylamino)-1-oxo-2-buten-1-yl]amino}-7-cyclopropylmethoxyquinazoline] | 5
